In PMC4802607, “Crystal structure and biochemical characterization of the recombinant ThBgl, a GH1 β-glucosidase overexpressed in Trichoderma harzianum under biomass degradation conditions” (Biotechnology for Biofuels, 2016):

B1: rThBgl (Trichoderma harzianum) (protein)
chain: MLPKDFQWGFATAAYQIEGAIDKDGRGPSIWDTFCAIPGKIADGTSGVTACDSYNRTAEDIALLKSLGAKSYRFSISWSRIIPKGGRDDPVNQLGIDHYAQFVDDLLEAGITPFITLFHWDLPEELHQRYGGLLNRTEFPLDFENYARVMFKALPKVRNWITFNEPLCSAIPGYGSGTFAPGRQSTTEPWIVGHNLLVAHGRAVKVYRDEFKDLNDGQIGIVLNGDFTYPWDSSDPLDREAAERRLEFFTAWYADPIYLGDYPASMRKQLGDRLPEFTPEEKAFVLGSNDFYGMNHYTSNYIRHRTSPATADDTVGNVDVLFYNKEGQCIGPETESSWLRPCPAGFRDFLVWISKRYNYPKIYVTENGTSLKGENDLPKEKILEDDFRVNYYNEYIRAMFTAATLDGVNVKGYFAWSLMDNFEWADGYVTRFGVTYVDYENGQQRFPKKSAKSLKPLFDELIAKE

Assays:
rThBgl = molecular target: T1, rThBgl (Trichoderma harzianum, UniProt A0A127SA86); assay: glucose tolerance of beta-glucosidase activity, […] glucose, triplicate; format: biochemical; details: read-out: % activity at 300 mM
T1 construct: gene bgl; full-length GH1 beta-glucosidase, bgl gene 1398 bp, pET28a, E. coli Rosetta; N-terminal His6-tag cut with thrombin for assays

purified protein = substrate: O=[N+]([O-])c1ccc(O[C@@H]2O[C@H](CO)[C@@H](O)[C@H](O)[C@H]2O)cc1; assay: purified protein; details: 100 mM sodium phosphate pH 6.0, 40 °C, 0-10 mM substrate, 10 min

| Molecule | activity at 300000 µM (rThBgl) [%] | Km (purified protein) [µM] |
| --- | --- | --- |
| OC[C@H]1OC(O)[C@H](O)[C@@H](O)[C@@H]1O (some centres unmarked) [glucose] | 50 |  |
| B1 |  | 970 |
